Literature values as cited in patent US20130184245A1, “ENDOMETRIOSIS TREATMENT” (DRUGTECH CORPORATION, priority 2007, published 2013).
Like-named read-outs stand apart in the source and are kept apart here.

Tests used:
[1] = tested on: pelvic endometriosis
[2] = intravaginal gel, 100 to 200 mg/day
[3] = tested on: deeply infiltrating endometriosis
[4] = vaginal suppository 100 mg/day versus per os 400 mg/day
[5] = tested on: women with endometriosis and chronic pelvic pain symptoms; conditions: intravaginal danazol therapy, 22 women
[6] = tested on: endometriosis; conditions: daily administration of 5 mg danazol in suppository form
[7] = tested on: pelvic endometriosis; conditions: vaginal ring containing 1000 mg danazol
[8] = tested on: women with endometriosis; conditions: intravaginal gel, 100 to 200 mg/day
[9] = intravaginal danazol therapy
[10] = not given; remark: listed apart in the source
[11] = tested on: women with endometriosis

plasma levels of danazol [2]	danazol concentrations in the ovary and uterus, vaginal versus oral administration [4]	serum danazol concentration, vaginal versus oral administration [4]	serum danazol concentrations (oral therapy with danazol at 400 mg/day)	serum danazol concentrations (vaginal danazol therapy (ring 1500 mg))	peripheral levels of danazol [9]	serum danazol levels ([10]; danazol 400 mg/day per os)	serum danazol levels ([10]; topical danazol administration (vaginal ring 1000 mg))	Compound	women in whom conception was enabled while the ring was in place ([1]; of 35 infertile women, vaginal ring 2000 to 3500 mg danazol)	effect on dysmenorrhea and pelvic endometriosis ([1]; vaginal ring containing 2000 to 3500 mg danazol, 35 infertile women)	women in whom ovulation and conception occurred ([3]; out of 31 infertile women with deeply infiltrating endometriosis, vaginal ring 1500 mg)	time to elimination of dysmenorrhea ([3]; vaginal ring containing 1500 mg danazol)	management of chronic pelvic pain secondary to pelvic endometriosis [5]	side effect profile, systemic androgen-like effects [5]	effect on dyspareunia and dysmenorrhea [6]	efficacy in treating pelvic endometriosis [7]	effect on chronic pelvic pain [8]	systemic androgenic side effects [8]	side effects such as seborrhea, acne and weight gain, versus oral ([11]; vaginal administration)	effectiveness in reducing dyspareunia and dysmenorrhea versus oral gestrinone therapy ([11]; vaginal route, women with endometriosis)
low to undetectable	comparable	much lower	high	undetectable	undetectable	exceeded 100 ng/ml	undetectable	C#C[C@]1(O)CC[C@H]2[C@@H]3CCC4=Cc5oncc5C[C@]4(C)[C@H]3CC[C@@]21C [danazol, 17α-ethynyl-17β-hydroxy-4-androsteno[2,3-d]-isoxazole]	13	reduced dysmenorrhea and pelvic endometriosis	17	≤ 3 months	effective	paucity of systemic androgen-like effects	remission	very effective	significantly reduced	lack of systemic androgenic side effects		
								C#C[C@]1(O)CC[C@H]2[C@@H]3CCC4=CC(=O)CCC4=C3C=C[C@@]21CC [gestrinone, ethylnorgestrienone]											significantly lower	equally effective
